The inhibition is the drop in the measured response relative to a control, in per cent.

Molecules are shown by their SMILES. Structures can show the parent of a compound that is named as a salt.

For the assay, the target named is S. aureus GyrB ATPase (Staphylococcus aureus, UniProt P0A0K8). Nature of the assay: biochemical. The settings on record: compound at 1 μM, one value per test if tested more than once; for inhibition at 1 µM: read-out: % Inhibition of S. aureus GyrB ATPase. As for the experimental part: S. aureus GyrB ATPase Inhibition Activity: Compounds may be tested for inhibition of S. aureus GyrB ATPase activity using an ammonium molybdate/malachite green-based phosphate detection assay (Lanzetta, P. A., L. J. Alvarez, P. S. Reinach, and O. A. Candia, 1979, 100: 95-97). Assays can be performed in multiwell plates in 30 μl reactions containing: 50 mM Hepes buffer pH 7.5, 75 mM ammonium acetate, 8.0 mM magnesium chloride, 0.5 mM ethylenediaminetetraacetic acid, 5% glycerol, 1.0 mM 1,4-Dithio-DL-threitol, 200 nM bovine serum albumin, 1.0 μg/m1 sheared salmon sperm DNA, 250 pM E. coli GyrA, 250 pM S. aureus GyrB, 250 μM ATP, and compound in dimethylsulfoxide. Reactions can be quenched with 30 μl of ammonium molybdate/malachite green detection reagent containing 1.2 mM malachite green hydrochloride, 8.5 mM ammonium molybdate tetrahydrate, and 1 M hydrochloric acid. […] An IC50 measurement of compound potency for each compound can be determined from reactions performed in the presence of 10 different compound concentrations.
S. aureus GyrB ATPase, sequence (P0A0K8 whole entry): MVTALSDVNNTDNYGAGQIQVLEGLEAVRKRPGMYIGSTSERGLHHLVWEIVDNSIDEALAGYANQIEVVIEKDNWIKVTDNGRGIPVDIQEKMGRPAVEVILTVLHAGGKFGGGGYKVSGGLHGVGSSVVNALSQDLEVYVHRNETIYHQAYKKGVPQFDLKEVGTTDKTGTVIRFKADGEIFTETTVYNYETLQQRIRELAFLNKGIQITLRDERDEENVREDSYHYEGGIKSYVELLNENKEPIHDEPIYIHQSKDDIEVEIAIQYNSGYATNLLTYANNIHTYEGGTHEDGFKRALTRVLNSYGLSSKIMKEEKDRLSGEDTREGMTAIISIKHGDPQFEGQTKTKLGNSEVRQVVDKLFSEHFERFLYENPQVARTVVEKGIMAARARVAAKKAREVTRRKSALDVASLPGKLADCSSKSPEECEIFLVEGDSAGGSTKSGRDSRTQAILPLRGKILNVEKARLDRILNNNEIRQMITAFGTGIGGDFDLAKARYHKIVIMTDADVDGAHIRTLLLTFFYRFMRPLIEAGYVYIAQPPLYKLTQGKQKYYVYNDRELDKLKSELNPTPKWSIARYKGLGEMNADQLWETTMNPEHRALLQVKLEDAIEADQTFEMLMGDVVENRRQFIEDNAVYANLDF
S. aureus GyrB ATPase, sequence (P0AES4 whole entry, further chain): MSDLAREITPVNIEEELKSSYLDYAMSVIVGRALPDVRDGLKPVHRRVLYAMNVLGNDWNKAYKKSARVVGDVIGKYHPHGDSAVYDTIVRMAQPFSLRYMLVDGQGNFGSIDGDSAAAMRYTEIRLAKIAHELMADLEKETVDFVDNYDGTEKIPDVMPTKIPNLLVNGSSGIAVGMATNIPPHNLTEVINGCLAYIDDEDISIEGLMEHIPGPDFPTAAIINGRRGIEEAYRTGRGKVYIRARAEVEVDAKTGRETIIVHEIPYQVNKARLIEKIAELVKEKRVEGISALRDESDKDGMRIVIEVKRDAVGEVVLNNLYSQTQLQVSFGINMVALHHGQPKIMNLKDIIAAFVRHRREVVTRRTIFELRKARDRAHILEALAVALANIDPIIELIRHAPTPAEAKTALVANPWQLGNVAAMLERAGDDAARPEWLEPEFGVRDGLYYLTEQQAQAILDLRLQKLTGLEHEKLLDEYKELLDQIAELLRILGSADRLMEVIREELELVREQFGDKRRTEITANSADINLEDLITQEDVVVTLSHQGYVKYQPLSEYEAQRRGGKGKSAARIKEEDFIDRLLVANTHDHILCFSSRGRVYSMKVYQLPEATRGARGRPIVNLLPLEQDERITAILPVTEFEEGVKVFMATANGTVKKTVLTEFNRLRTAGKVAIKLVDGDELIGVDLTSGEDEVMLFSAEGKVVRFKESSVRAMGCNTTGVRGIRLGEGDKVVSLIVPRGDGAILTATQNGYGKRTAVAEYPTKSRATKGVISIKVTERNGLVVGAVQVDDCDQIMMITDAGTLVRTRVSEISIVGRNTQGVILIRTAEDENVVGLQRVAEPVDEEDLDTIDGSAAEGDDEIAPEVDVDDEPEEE

For the compound `CCNC(=O)Nc1cc(-c2nc(C(F)(F)F)cs2)c(-c2ccc3c(c2)c(=O)c(C(=O)O)cn3[C@H](CO)CC(C)C)cn1` [Example 83, (S)-6-(6-(3-ethylureido)-4-(4-(trifluoromethyl)thiazol-2-yl)pyridin-3-yl)-1-(1-hydroxy-4-methylpentan-2-yl)-4-oxo-1,4-dihydroquinoline-3-carboxylic acid], the inhibition at 1 µM came to 96%.

Take `CCCNC(=O)Nc1cc(-c2nc(C(F)(F)F)cs2)c(-c2ccc3c(c2)c(=O)c(C(=O)O)cn3[C@H](CO)C(C)(C)C)cn1` [Example 84, (S)-1-(1-hydroxy-3,3-dimethylbutan-2-yl)-4-oxo-6-(6-(3-propylureido)-4-(4-(trifluoromethyl)thiazol-2-yl)pyridin-3-yl)-1,4-dihydroquinoline-3-carboxylic acid]: the inhibition at 1 µM came out at 95%. For `CCNC(=O)Nc1cc(-c2nc(C(F)(F)F)cs2)c(-c2ccc3c(c2)c(=O)c(C(=O)O)cn3[C@@H](CO)C(C)C)cn1` [Example 85, (R)-6-(6-(3-ethylureido)-4-(4-(trifluoromethyl)thiazol-2-yl)pyridin-3-yl)-1-(1-hydroxy-3-methylbutan-2-yl)-4-oxo-1,4-dihydroquinoline-3-carboxylic acid], the inhibition at 1 µM was 96%. Same read-out and setting: in the case of `CCNC(=O)Nc1cc(-c2nc(C(F)(F)F)cs2)c(-c2ccc3c(c2)c(=O)c(C(=O)O)cn3[C@@H](CC)CO)cn1` [Example 86, (S)-6-(6-(3-ethylureido)-4-(4-(trifluoromethyl)thiazol-2-yl)pyridin-3-yl)-1-(1-hydroxybutan-2-yl)-4-oxo-1,4-dihydroquinoline-3-carboxylic acid] it was 98%; in that of `CCCNC(=O)Nc1cc(-c2nc(C(F)(F)F)cs2)c(-c2ccc3c(c2)c(=O)c(C(=O)O)cn3[C@H](CO)CC(C)C)cn1` [Example 87, (S)-1-(1-hydroxy-4-methylpentan-2-yl)-4-oxo-6-(6-(3-propylureido)-4-(4-(trifluoromethyl)thiazol-2-yl)pyridin-3-yl)-1,4-dihydroquinoline-3-carboxylic acid], 96%.

As for `CCNC(=O)Nc1cc(-c2nc(C(F)(F)F)cs2)c(-c2ccc3c(c2)c(=O)c(C(=O)O)cn3C[C@@H]2CCCO2)cn1` [Example 88, (S)-6-(6-(3-ethylureido)-4-(4-(trifluoromethyl)thiazol-2-yl)pyridin-3-yl)-4-oxo-1-((tetrahydrofuran-2-yl)methyl)-1,4-dihydroquinoline-3-carboxylic acid], the inhibition at 1 µM was 90%. The same measure, in the same setting: in the case of `CCNC(=O)Nc1cc(-c2nc(C(F)(F)F)cs2)c(-c2ccc3c(c2)c(=O)c(C(=O)O)cn3CCC2CCN(C)CC2)cn1` [Example 89, 6-(6-(3-ethylureido)-4-(4-(trifluoromethyl)thiazol-2-yl)pyridin-3-yl)-1-(2-(1-methylpiperidin-4-yl)ethyl)-4-oxo-1,4-dihydroquinoline-3-carboxylic acid] it was 91%; in that of `CCNC(=O)Nc1cc(-c2nc(C(F)(F)F)cs2)c(-c2ccc3c(c2)c(=O)c(C(=O)O)cn3CC2CCOCC2)cn1` [Example 90, 6-(6-(3-ethylureido)-4-(4-(trifluoromethyl)thiazol-2-yl)pyridin-3-yl)-4-oxo-1-((tetrahydro-2H-pyran-4-yl)methyl)-1,4-dihydroquinoline-3-carboxylic acid], 97%. On the same count and under the same terms, in the case of `CCNC(=O)Nc1cc(-c2nc(C(F)(F)F)cs2)c(-c2ccc3c(c2)c(=O)c(C(=O)O)cn3C(CC)CO)cn1` (stereo not shown) [Example 93, 6-(6-(3-ethylureido)-4-(4-(trifluoromethyl)thiazol-2-yl)pyridin-3-yl)-1-(1-hydroxybutan-2-yl)-4-oxo-1,4-dihydroquinoline-3-carboxylic acid] it was 95%; in that of `CCNC(=O)Nc1cc(-c2nc(C(F)(F)F)cs2)c(-c2ccc3c(c2)c(=O)c(C(=O)O)cn3CC2CCN(C)CC2)cn1` [Example 94, 6-(6-(3-ethylureido)-4-(4-(trifluoromethyl)thiazol-2-yl)pyridin-3-yl)-1-((1-methylpiperidin-4-yl)methyl)-4-oxo-1,4-dihydroquinoline-3-carboxylic acid], 95%. With `CCNC(=O)Nc1cc(-c2nc(C(F)(F)F)cs2)c(-c2ccc3c(c2)c(=O)c(C(=O)O)cn3[C@H](CO)CC(C)C)cn1` [Example 95, (S)-6-(6-(3-ethylureido)-4-(4-(trifluoromethyl)thiazol-2-yl)pyridin-3-yl)-1-(1-hydroxy-4-methylpentan-2-yl)-4-oxo-1,4-dihydroquinoline-3-carboxylic acid], where the note is “1 µM”, the “% Inhibition of S. aureus GyrB ATPase” value amounted to 109%.

Turning to `CCNC(=O)Nc1cc(-c2nc(C(F)(F)F)cs2)c(-c2ccc3c(c2)c(=O)c(C(=O)NC)cn3[C@H](CO)CC(C)C)cn1` [Example 96, (S)-6-(6-(3-ethylureido)-4-(4-(trifluoromethyl)thiazol-2-yl)pyridin-3-yl)-1-(1-hydroxy-4-methylpentan-2-yl)-N-methyl-4-oxo-1,4-dihydroquinoline-3-carboxamide], the inhibition at 1 µM stood at 95%. Still for that read-out and setting: next, `CCNC(=O)Nc1cc(-c2nc(C(F)(F)F)cs2)c(-c2ccc3c(c2)c(=O)c(C(=O)O)cn3C2(CO)CCOCC2)cn1` [Example 122, 6-(6-(3-ethylureido)-4-(4-(trifluoromethyl)thiazol-2-yl)pyridin-3-yl)-1-(4-(hydroxymethyl)tetrahydro-2H-pyran-4-yl)-4-oxo-1,4-dihydroquinoline-3-carboxylic acid]: 95%; `CCNC(=O)Nc1cc(-c2nc(C(F)(F)F)cs2)c(-c2ccc3c(c2)c(=O)c(C(=O)O)cn3CC2CCCCN2)cn1` (stereo not shown) [Example 123, 6-(6-(3-ethylureido)-4-(4-(trifluoromethyl)thiazol-2-yl)pyridin-3-yl)-4-oxo-1-(piperidin-2-ylmethyl)-1,4-dihydroquinoline-3-carboxylic acid]: 95%. Consider `CCNC(=O)Nc1cc(-c2nc(C(F)(F)F)cs2)c(-c2ccc3c(c2)c(=O)c(C(=O)O)cn3Cc2ccncc2)cn1` [Example 124, 6-(6-(3-ethylureido)-4-(4-(trifluoromethyl)thiazol-2-yl)pyridin-3-yl)-4-oxo-1-(pyridin-4-ylmethyl)-1,4-dihydroquinoline-3-carboxylic acid], for which the inhibition at 1 µM was 87%. Same read-out and setting: in the case of `CCNC(=O)Nc1cc(-c2nc(C(F)(F)F)cs2)c(-c2ccc3c(c2)c(=O)c(C(=O)O)cn3Cc2cn(C)cn2)cn1` [Example 125, 6-(6-(3-ethylureido)-4-(4-(trifluoromethyl)thiazol-2-yl)pyridin-3-yl)-1-((1-methyl-1H-imidazol-4-yl)methyl)-4-oxo-1,4-dihydroquinoline-3-carboxylic acid] it was 93%; in that of `CCNC(=O)Nc1cc(-c2nc(C(F)(F)F)cs2)c(-c2ccc3c(c2)c(=O)c(C(=O)O)cn3C(C)CN(C)C)cn1` (stereo not shown) [Example 126, 1-(1-(dimethylamino)propan-2-yl)-6-(6-(3-ethylureido)-4-(4-(trifluoromethyl)thiazol-2-yl)pyridin-3-yl)-4-oxo-1,4-dihydroquinoline-3-carboxylic acid], 117%.

Consider `CCNC(=O)Nc1cc(-c2nc(C(F)(F)F)cs2)c(-c2ccc3c(c2)c(=O)c(C(=O)O)cn3CC2CCCCN2C)cn1` (stereo not shown) [Example 127, 6-(6-(3-ethylureido)-4-(4-(trifluoromethyl)thiazol-2-yl)pyridin-3-yl)-1-((1-methylpiperidin-2-yl)methyl)-4-oxo-1,4-dihydroquinoline-3-carboxylic acid, formic acid salt], for which the inhibition at 1 µM came to 117%. On the same count and under the same terms, next, `CCNC(=O)Nc1cc(-c2nc(C(F)(F)F)cs2)c(-c2ccc3c(c2)c(=O)c(C(=O)NC2CCOCC2)cn3C(COC)COC)cn1` [Example 128, 1-(1,3-dimethoxypropan-2-yl)-6-(6-(3-ethylureido)-4-(4-(trifluoromethyl)thiazol-2-yl)pyridin-3-yl)-4-oxo-N-(tetrahydro-2H-pyran-4-yl)-1,4-dihydroquinoline-3-carboxamide]: 92%. Turning to `CCNC(=O)Nc1cc(-c2nc(C(F)(F)F)cs2)c(-c2ccc3c(c2)c(=O)c(C(=O)NC)cn3C(COC)COC)cn1` [Example 129, 1-(1,3-dimethoxypropan-2-yl)-6-(6-(3-ethylureido)-4-(4-(trifluoromethyl)thiazol-2-yl)pyridin-3-yl)-N-methyl-4-oxo-1,4-dihydroquinoline-3-carboxamide], the inhibition at 1 µM came out at 93%. On the same count and under the same terms, in the case of `CCNC(=O)Nc1cc(-c2nc(C(F)(F)F)cs2)c(-c2ccc3c(c2)c(=O)c(C(=O)NC)cn3[C@H](C(=O)O)C(C)C)cn1` [Example 130, (S)-2-(6-(6-(3-ethylureido)-4-(4-(trifluoromethyl)thiazol-2-yl)pyridin-3-yl)-3-(methylcarbamoyl)-4-oxoquinolin-1(4H)-yl)-3-methylbutanoic acid] it was 101%.

Consider `CCNC(=O)Nc1cc(-c2nc(C(F)(F)F)cs2)c(-c2ccc3c(c2)c(=O)c(C(=O)N2CCNCC2)cn3C(COC)COC)cn1` [Example 140, 1-{5-[1-(1,3-dimethoxypropan-2-yl)-4-oxo-3-(piperazin-1-ylcarbonyl)-1,4-dihydroquinolin-6-yl]-4-[4-(trifluoromethyl)-1,3-thiazol-2-yl]pyridin-2-yl}-3-ethylurea], for which the inhibition at 1 µM was 95%.

The record behind these values is US8283361B2 (AstraZeneca AB, priority 2008, dated 2012).
